Assay results reported in patent US5506238A, “Biphenylmethane derivative and pharmacological use” (Eisai Co., Ltd., priority 1989, dated 1996).

Experiments:
[1] = biological target: T1, angiotensin II contracture of rabbit aortic strip (Oryctolagus cuniculus, UniProt P34976); experiment: Angiotensin II contracture antagonism through the use of rabbit aortic strip; assay type: cell-based, rabbit (New Zealand white); settings: negative log of antagonist concentration giving dose ratio 2, Schild's equation, 40 min preincubation, read-out: pA2 (converted)
T1 construct: A spiral preparation of the aorta having a width of 1.5 to 2 mm and a length of 15 to 20 mm was prepared therefrom; from tissue; host or cells: thoracic aorta of male New Zealand white rabbit, spiral strip
T1 sequence (P34976 1-359): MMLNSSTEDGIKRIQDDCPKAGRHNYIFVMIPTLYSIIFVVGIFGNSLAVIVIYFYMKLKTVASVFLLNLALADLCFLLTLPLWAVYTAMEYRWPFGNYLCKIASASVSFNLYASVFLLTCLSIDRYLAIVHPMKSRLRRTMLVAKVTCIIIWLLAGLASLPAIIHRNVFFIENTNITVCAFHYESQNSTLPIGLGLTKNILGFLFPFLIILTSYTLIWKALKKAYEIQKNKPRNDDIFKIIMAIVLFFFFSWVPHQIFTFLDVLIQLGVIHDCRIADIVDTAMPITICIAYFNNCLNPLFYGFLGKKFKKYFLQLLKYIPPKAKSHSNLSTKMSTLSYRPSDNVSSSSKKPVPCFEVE
Protocol: (1) Angiotens in II contracture antagonism through the use of rabbit aortic strip A male New Zealand white rabbit having a weight of 2 to 3 kg was anesthetized with pentobarbital sodium, and the thoracic aorta was removed. A spiral preparation of the aorta having a width of 1.5 to 2 mm and a length of 15 to 20 mm was prepared therefrom and suspended in a 10-ml Magnus tank containing a Krebs bicarbonate solution (Krebs bicarbonate (mM): NaCl 118.4, KCl 4.7, CaCl2 2.0, MgSO4.7H2O 1.2, NaHCO3.25.0, KH2 PO4 1.2, glucose 11.1). 10^-5 M indomethacine was added thereto to eliminate the influence of prostaglandin. The Krebs solution was maintained at 37° C. and bubbled with 95% O2 -5% CO2. An initial tension of 1 g was applied to the strip, and the strip was allowed to stand for about 1 hr. Then, 50 mM KCl was added thereto to induce contracture. After the contracture was stabilized, the strip was washed. The above procedure was repeated twice, and the second contracture was taken as 100% contracture. Thereafter, angiotensin II was accumulatively added from 10^-10 to 3×10^-6 to prepare a dose-reaction curve. […] The contraction was recorded on a multi-pen recorder (R-10 manufactured by Rika Denki Kogyo Co., Ltd.) through a carrier amplifier (A[…] or A[…] manufactured by Nihon Koden Corp.) by making use of an isometric piezoelectric transducer ([…] manufactured by Nihon Koden Corp.). The potency of the angiotensin II antagonist was determined by calculating negative logarithm (-log) of a concentration of pA2 value [i.e., a concentration of competitive antagonist which makes the dose ratio of the active agent 2] through the use of Schild's equation.

[2] = test system: pressor reaction of angiotensin II; experiment: Inhibition of pressor reaction of angiotensin II on anesthetized rat (Wistar Kyoto) having blocked ganglions; assay type: in vivo; settings: iv, 0.05 h, ganglion-blocked Wistar Kyoto rat, i.v., 3 min after administration, read-out: Dose necessary for shifting about doubled shift of pressor reaction of angiotensin toward right (ED50)
Protocol: (2) Inhibition of pressor reaction of angiotensin II on anesthetized rat (Wistar Kyoto) having blocked ganglions
A 9 to 25 week-old Wistar Kyoto male rat (Charles River Japan) was anesthetized with 50 mg/kg pentobarbital sodium intraperitoneally, and the carotid and jugular were cannulated. The carotid cannula was connected to a piezoelectric transducer (TP-200T), and recording was conducted with a polygraph system (RM-6000 manufactured by Nihon Koden Corp.) through a carrier amplifier (AP-601G manufactured by Nihon Koden Corp.) and an average blood pressure measuring panel (Nihon Koden Corp.) utilizing the integration of pulse waves. 10 mg/kg of pentolinium was administered intravenously through the jugular cannula to conduct ganglion blockade. […] Then, 0.1 to 10 mg/kg of the test compound was administered intravenously, and 0.03 to 1 μg/kg of angiotensin II was again administered intravenously 3 min after the administration of the test compound to determine the rate of shift of the dose-pressor reaction curve toward the right. A dose (C, ED50, mg/kg, i.v.) necessary for bringing about doubled shift of the dose-pressor reaction curve toward the right was determined from the dose of the antagonist (A, mg/kg, i.v.) and the above-described rate of shift (B). [formula]

[3] = Seven-day repeated oral administration, observation of death in SD rats; assay type: in vivo; settings: 100 mg/kg/day orally for seven days; eight week-old male SD rats; observed until 24 hr after final administration
Protocol: Further, compound Nos. 1, 2, 5 and 6 listed in the above-described Table 1 were suspended in 0.5% MC (methylcellulose), and the suspension was orally administered to an eight week-old male SD (Sprague Dawley) rats (4 rats per group) in a dose of 100 mg/kg/day for seven days. The rats were observed until 24 hr after the final administration.

| SMILES | Kb [1] [nM] | ED50 [2] [mg/kg] | death [3] |
| --- | --- | --- | --- |
| CCCCc1nc2ccccc2n1Cc1ccc(-c2ccccc2-c2nn[nH]n2)cc1 [compound 1] | 7.76 | 0.74 | no death was observed |
| Cc1ccnc2c1nc(C1CC1)n2Cc1ccc(-c2ccccc2C(=O)O)cc1 [compound 18] | 2.14 | 0.075 | – |
| CCCc1nc2c(C)cc(C)nc2n1Cc1ccc(-c2ccccc2-c2nnn[nH]2)cc1 [compound 22] | 0.024 | 0.04 | – |
| CCCc1ccnc2c1nc(CC)n2Cc1ccc(-c2ccccc2-c2nnn[nH]2)cc1 [compound 9] | 23.4 | 1.33 | – |
| CCCc1nc2cccnc2n1Cc1ccc(-c2ccccc2-c2nn[nH]n2)cc1 [compound 2] | 0.832 | 0.15 | no death was observed |
| CCc1nc2c(C)ccnc2n1Cc1ccc(-c2ccccc2-c2nnn[nH]2)cc1 [compound 6] | 0.0912 | 0.019 | no death was observed |
| CCOc1nc2c(C)cc(C)nc2n1Cc1ccc(-c2ccccc2C(=O)O)cc1 [compound 32] | 0.575 | 0.018 | – |
| CCCc1nc2c(Cl)ccnc2n1Cc1ccc(-c2ccccc2C(=O)O)cc1 [compound 13] | 8.71 | 0.66 | – |
| Cc1ccnc2c1nc(C(C)C)n2Cc1ccc(-c2ccccc2-c2nnn[nH]2)cc1 [compound 10] | 0.661 | 0.42 | – |
| CCOc1nc2c(C)cc(C)nc2n1Cc1ccc(-c2ccccc2-c2nnn[nH]2)cc1 [compound 31] | 0.182 | 0.01 | – |
| Cc1ccnc2c1nc(C1CC1)n2Cc1ccc(-c2ccccc2-c2nnn[nH]2)cc1 [compound 7] | 0.0229 | 0.022 | – |
| CCOc1nc2c(C)ccnc2n1Cc1ccc(-c2ccccc2-c2nnn[nH]2)cc1 [compound 26] | 0.0263 | 0.0084 | – |
| CCSc1nc2c(C)ccnc2n1Cc1ccc(-c2ccccc2C(=O)O)cc1 [compound 20] | 5.25 | 0.41 | – |
| CCCc1nc2c(C)ccnc2n1Cc1ccc(-c2ccccc2-c2nn[nH]n2)cc1 [compound 5] | 0.0468 | 0.029 | no death was observed |
| CCc1nc2cc(Br)cnc2n1Cc1ccc(-c2ccccc2-c2nnn[nH]2)cc1 [compound 4] | 10 | 1.57 | – |
| Cc1ccnc2c1nc(C1CC1)n2Cc1ccc(-c2cc(Cl)ccc2C(=O)O)cc1 [compound 29] | 3.39 | 0.06 | – |

Second part, led by results:

| Kb [1] [nM] | SMILES | ED50 [2] [mg/kg] | death [3] |
| --- | --- | --- | --- |
| 3.16 | CCc1nc2c(C)ccnc2n1Cc1ccc(-c2ccccc2C(=O)O)cc1 [compound 16] | 0.29 | – |
| 2.95 | CCc1nc2ccc(Cl)nc2n1Cc1ccc(-c2ccccc2-c2nnn[nH]2)cc1 [compound 14] | 0.35 | – |
| 4.27 | CCCCc1nc2cccnc2n1Cc1ccc(-c2cc(OC)ccc2-c2nnn[nH]2)cc1 [compound 8] | 0.71 | – |
| 0.891 | CC#Cc1nc2c(C)ccnc2n1Cc1ccc(-c2ccccc2-c2nnn[nH]2)cc1 [compound 28] | 0.04 | – |
| 0.0115 | CCCc1nc2c(C)ccnc2n1Cc1ccc(-c2cc(Cl)ccc2-c2nnn[nH]2)cc1 [compound 21] | 0.071 | – |
| 3.55 | CCCc1nc2c(C)ccnc2n1Cc1ccc(-c2ccccc2C(=O)O)cc1 [compound 17] | 0.17 | – |
| 0.372 | CCCOc1nc2c(C)ccnc2n1Cc1ccc(-c2ccccc2-c2nnn[nH]2)cc1 [compound 27] | 0.034 | – |
| 0.0138 | Cc1cc(C)c2nc(C3CC3)n(Cc3ccc(-c4ccccc4-c4nnn[nH]4)cc3)c2n1 [compound 24] | 0.015 | – |
| 0.182 | CCSc1nc2c(C)ccnc2n1Cc1ccc(-c2ccccc2-c2nnn[nH]2)cc1 [compound 11] | 0.04 | – |
| 0.589 | Cc1cc(C)c2nc(C3CC3)n(Cc3ccc(-c4ccccc4C(=O)O)cc3)c2n1 [compound 25] | 0.021 | – |
| 1.35 | CCCc1nc2c(C)c(Cl)cnc2n1Cc1ccc(-c2ccccc2-c2nnn[nH]2)cc1 [compound 15] | 0.32 | – |
| 0.525 | CSc1nc2c(C)ccnc2n1Cc1ccc(-c2ccccc2-c2nnn[nH]2)cc1 [compound 12] | 0.13 | – |
| 1.55 | CCCc1nc2cccnc2n1Cc1ccc(-c2cc(Cl)ccc2-c2nnn[nH]2)cc1 [compound 3] | 0.44 | – |
| 0.132 | COc1nc2c(C)ccnc2n1Cc1ccc(-c2ccccc2-c2nnn[nH]2)cc1 [compound 30] | 0.016 | – |
| 4.9 | Cc1ccnc2c1nc(C1CCC1)n2Cc1ccc(-c2ccccc2C(=O)O)cc1 [compound 19] | 0.25 | – |
| 1.15 | CCCc1nc2c(C)cc(C)nc2n1Cc1ccc(-c2ccccc2C(=O)O)cc1 [compound 23] | 0.08 | – |
